One assay addresses adenosine A2A receptor (Homo sapiens (Human), UniProt P29274). The experiment in a line: Adenosine receptor activity assay (Table 1), A2A activity. The settings on record: read-out: Ave A2A cAMP IC50. The format is biochemical.
A further assay has as its target adenosine A3 receptor (Homo sapiens (Human), UniProt P0DMS8). The experiment in a line: Adenosine receptor activity assay (Table 1), A3 cAMP. It counts as cell-based.
In another assay the target is adenosine A2B receptor (Homo sapiens (Human), UniProt P29275). Description: Adenosine receptor activity assay (Table 1), A2B activity. It counts as biochemical. The conditions noted are these: for Ratio: A2A activity to A2B activity (A2A/A2B); for IC50: read-out: Ave A2B cAMP IC50.
Sequence of adenosine A2B receptor (P29275 whole entry): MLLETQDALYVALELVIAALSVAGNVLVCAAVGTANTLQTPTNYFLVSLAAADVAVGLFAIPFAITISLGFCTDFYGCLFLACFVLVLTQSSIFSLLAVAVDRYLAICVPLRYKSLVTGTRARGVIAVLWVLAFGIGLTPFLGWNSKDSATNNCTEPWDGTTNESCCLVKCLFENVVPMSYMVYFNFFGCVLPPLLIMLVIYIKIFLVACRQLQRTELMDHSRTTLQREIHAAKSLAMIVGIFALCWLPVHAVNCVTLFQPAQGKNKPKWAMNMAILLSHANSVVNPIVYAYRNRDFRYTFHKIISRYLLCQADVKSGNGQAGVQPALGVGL
Another assay addresses adenosine A1 receptor (Homo sapiens (Human), UniProt P30542). Description: Adenosine receptor activity assay (Table 1), A1 cAMP. It counts as cell-based.

Each structure is given as a SMILES string. Some results are limits rather than exact numbers.

Sequence of adenosine A3 receptor (P0DMS8 whole entry): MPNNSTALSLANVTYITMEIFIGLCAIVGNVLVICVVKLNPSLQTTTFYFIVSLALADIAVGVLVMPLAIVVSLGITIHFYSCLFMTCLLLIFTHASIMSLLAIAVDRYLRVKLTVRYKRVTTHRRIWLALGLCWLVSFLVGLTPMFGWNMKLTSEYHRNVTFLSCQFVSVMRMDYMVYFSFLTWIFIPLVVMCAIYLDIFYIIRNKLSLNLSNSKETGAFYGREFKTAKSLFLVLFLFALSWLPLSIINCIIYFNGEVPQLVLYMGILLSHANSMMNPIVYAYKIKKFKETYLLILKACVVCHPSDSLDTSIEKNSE
Sequence of adenosine A2A receptor (P29274 whole entry): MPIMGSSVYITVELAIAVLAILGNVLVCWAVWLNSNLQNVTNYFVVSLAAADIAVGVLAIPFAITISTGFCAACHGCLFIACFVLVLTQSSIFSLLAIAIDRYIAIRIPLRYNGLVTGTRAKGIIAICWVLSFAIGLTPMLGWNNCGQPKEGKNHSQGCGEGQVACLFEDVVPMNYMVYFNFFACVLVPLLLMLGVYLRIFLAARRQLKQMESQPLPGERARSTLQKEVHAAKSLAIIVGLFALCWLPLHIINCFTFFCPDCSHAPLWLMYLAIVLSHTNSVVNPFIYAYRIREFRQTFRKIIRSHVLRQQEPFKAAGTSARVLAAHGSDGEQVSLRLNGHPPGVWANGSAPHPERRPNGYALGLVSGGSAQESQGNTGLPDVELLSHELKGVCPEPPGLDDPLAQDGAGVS
Sequence of adenosine A1 receptor (P30542 whole entry): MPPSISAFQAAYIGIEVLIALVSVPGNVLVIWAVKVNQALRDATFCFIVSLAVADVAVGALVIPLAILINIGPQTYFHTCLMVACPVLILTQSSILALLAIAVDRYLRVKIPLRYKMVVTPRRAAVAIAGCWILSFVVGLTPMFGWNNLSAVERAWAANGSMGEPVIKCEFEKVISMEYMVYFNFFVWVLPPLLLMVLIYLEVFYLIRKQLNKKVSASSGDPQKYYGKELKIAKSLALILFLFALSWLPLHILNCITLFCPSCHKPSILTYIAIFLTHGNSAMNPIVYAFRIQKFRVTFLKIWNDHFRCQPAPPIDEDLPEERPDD

On to `C[C@H](Nc1nc(C(=O)NC[C@@H](C)O)c2sccc2n1)c1cncc(Cl)c1` [Example Z293, 2-(((S)-1-(5-Chloropyridin-3-yl)ethyl)amino)-N—((R)-2-hydroxypropyl)thieno[3,2-d]pyrimidine-4-carboxamide], for which the half-maximal inhibitory concentration (IC50) is 100 to 500 nM at adenosine A2A receptor, 50 to 100 nM against adenosine A3 receptor, less than 10 nM on adenosine A2B receptor and 50 to 100 nM at adenosine A1 receptor. Also, the Ratio at adenosine A2B receptor worked out at 41.78.

Consider `C[C@H](Nc1nc(C(=O)N2CC[C@@H](CO)C2)c2sccc2n1)c1cncc(F)c1` [Example Z295, (2-(((S)-1-(5-Fluoropyridin-3-yl)ethyl)amino)thieno[3,2-d]pyrimidin-4-yl)((R)-3-(hydroxymethyl)pyrrolidin-1-yl)methanone], for which the 50% inhibitory concentration (IC50) is 100 to 500 nM at adenosine A2A receptor, more than 500 nM at adenosine A3 receptor, less than 10 nM at adenosine A2B receptor and more than 500 nM on adenosine A1 receptor. Besides, the Ratio at adenosine A2B receptor amounted to 68.33.

Regarding `Cc1cc2nc(N[C@@H](C)c3cccnc3)nc(C(=O)N3CC(O)C3)c2s1` [Example Z299, (S)-(3-Hydroxyazetidin-1-yl)(6-methyl-2-((1-(pyridin-3-yl)ethyl)amino)thieno[3,2-d]pyrimidin-4-yl)methanone], the IC50 at adenosine A2A receptor was 100 to 500 nM; against adenosine A3 receptor, more than 500 nM; at adenosine A2B receptor, less than 10 nM; on adenosine A1 receptor it was more than 500 nM. In addition, the Ratio on adenosine A2B receptor came out at 39.68.

Take `COC1CN(C(=O)c2nc(N[C@@H](C)c3ccccn3)nc3cc(C)sc23)C1` [Example Z300, (S)-(3-Methoxyazetidin-1-yl)(6-methyl-2-((1-(pyridin-2-yl)ethyl)amino)thieno[3,2-d]pyrimidin-4-yl)methanone]: the IC50 was 10 to 50 nM on adenosine A2A receptor, 50 to 100 nM at adenosine A3 receptor, less than 10 nM on adenosine A2B receptor and 50 to 100 nM against adenosine A1 receptor. Besides, the Ratio on adenosine A2B receptor is 21.89.

Take `CO[C@@H]1CCN(C(=O)c2nc(N[C@@H](C)c3cncc(F)c3)nc3cc(C)sc23)C1` [Example Z302, (2-(((S)-1-(5-Fluoropyridin-3-yl)ethyl)amino)-6-methylthieno[3,2-d]pyrimidin-4-yl)((R)-3-methoxypyrrolidin-1-yl)methanone]: the IC50 is 50 to 100 nM at adenosine A2A receptor, 50 to 100 nM at adenosine A3 receptor, less than 10 nM on adenosine A2B receptor and more than 500 nM at adenosine A1 receptor. Besides, the Ratio on adenosine A2B receptor is listed as 35.54.

As to `C[C@H](Nc1nc(C(=O)N[C@H]2C[C@@H](O)C2)c2sccc2n1)c1cncc(Cl)c1` [Example Z305, 2-(((S)-1-(5-Chloropyridin-3-yl)ethyl)amino)-N-((1s,3R)-3-hydroxycyclobutyl)thieno[3,2-d]pyrimidine-4-carboxamide], the IC50 on adenosine A2A receptor is 50 to 100 nM; at adenosine A3 receptor it was more than 500 nM; at adenosine A2B receptor, less than 10 nM; against adenosine A1 receptor, more than 500 nM. In addition, the Ratio at adenosine A2B receptor is given as 38.51.

`Cc1cc2nc(N[C@@H](C)c3cncc(F)c3)nc(C(=O)NCC(C)(C)O)c2s1` [Example Z308, (S)-2-((1-(5-Fluoropyridin-3-yl)ethyl)amino)-N-(2-hydroxy-2-methylpropyl)-6-methylthieno[3,2-d]pyrimidine-4-carboxamide]: the half-maximal inhibitory concentration (IC50) at adenosine A2A receptor was 50 to 100 nM; at adenosine A3 receptor, 50 to 100 nM; on adenosine A2B receptor it was less than 10 nM; at adenosine A1 receptor it was 50 to 100 nM. Also, the Ratio on adenosine A2B receptor is on record as 29.96.

For the compound `Cc1cc2nc(N[C@@H](C)c3cncc(F)c3)nc(C(=O)N3CC[C@H](CO)C3)c2s1` [Example Z309, (2-(((S)-1-(5-Fluoropyridin-3-yl)ethyl)amino)-6-methylthieno[3,2-d]pyrimidin-4-yl)((S)-3-(hydroxymethyl)pyrrolidin-1-yl)methanone], the 50% inhibitory concentration (IC50) at adenosine A2A receptor is 50 to 100 nM; against adenosine A3 receptor, more than 500 nM; at adenosine A2B receptor it was less than 10 nM; at adenosine A1 receptor, more than 500 nM. Also, the Ratio at adenosine A2B receptor is reported as 37.14.

For the compound `Cc1cc2nc(N[C@@H](C)c3cncc(F)c3)nc(C(=O)N3CC[C@@H](CO)C3)c2s1` [Example Z310, (2-(((S)-1-(5-Fluoropyridin-3-yl)ethyl)amino)-6-methylthieno[3,2-d]pyrimidin-4-yl)((R)-3-(hydroxymethyl)pyrrolidin-1-yl)methanone], the IC50 at adenosine A2A receptor was 100 to 500 nM; against adenosine A3 receptor it was more than 500 nM; on adenosine A2B receptor it was less than 10 nM; against adenosine A1 receptor it was more than 500 nM. The Ratio at adenosine A2B receptor is reported as 71.73.

In the case of `CO[C@H]1CCN(C(=O)c2nc(N[C@@H](C)c3ccccn3)nc3cc(C)sc23)C1` [Example Z311, ((S)-3-Methoxypyrrolidin-1-yl)(6-methyl-2-(((S)-1-(pyridin-2-yl)ethyl)amino)thieno[3,2-d]pyrimidin-4-yl)methanone], the 50% inhibitory concentration (IC50) at adenosine A2A receptor was 50 to 100 nM; against adenosine A3 receptor it was 50 to 100 nM; on adenosine A2B receptor, 10 to 50 nM; on adenosine A1 receptor, more than 500 nM. Besides, the Ratio on adenosine A2B receptor is recorded as 3.82.

Take `C[C@H](Nc1nc(C(=O)N[C@@H]2CCN(C(=O)OC(C)(C)C)C2)c2sccc2n1)c1ccccn1` [Example Z326, tert-Butyl (R)-3-(2-(((S)-1-(pyridin-2-yl)ethyl)amino)thieno[3,2-d]pyrimidine-4-carboxamido)pyrrolidine-1-carboxylate]: the half-inhibitory concentration (IC50) at adenosine A2A receptor was 10 to 50 nM; at adenosine A3 receptor it was 10 to 50 nM; at adenosine A2B receptor it was 50 to 100 nM; against adenosine A1 receptor it was more than 500 nM. Further, the Ratio on adenosine A2B receptor was 0.54.

In the case of `C[C@H](Nc1nc(C(=O)N2CCCC2)c2sc(C(F)(F)F)cc2n1)c1cccnc1` [Example Z327, (S)-(2-((1-(Pyridin-3-yl)ethyl)amino)-6-(trifluoromethyl)thieno[3,2-d]pyrimidin-4-yl)(pyrrolidin-1-yl)methanone], the IC50 is more than 500 nM on adenosine A2A receptor, more than 500 nM at adenosine A3 receptor, less than 10 nM on adenosine A2B receptor and more than 500 nM against adenosine A1 receptor. Also, the Ratio on adenosine A2B receptor stood at 143.99.

`Cc1cc2nc(N[C@@H](C)c3cccnc3)nc(C(=O)NC[C@H](C)O)c2s1` [Example Z328, N—((S)-2-Hydroxypropyl)-6-methyl-2-(((S)-1-(pyridin-3-yl)ethyl)amino)thieno[3,2-d]pyrimidine-4-carboxamide]: the concentration for half-maximal inhibition (IC50) is 100 to 500 nM on adenosine A2A receptor, 50 to 100 nM against adenosine A3 receptor, less than 10 nM at adenosine A2B receptor and more than 500 nM against adenosine A1 receptor. The Ratio at adenosine A2B receptor stood at 107.75.

As to `C[C@H](Nc1nc(C(=O)N[C@H]2CC[C@@H](O)C2)c2sccc2n1)c1cncc(F)c1` [Example Z329, 2-(((S)-1-(5-Fluoropyridin-3-yl)ethyl)amino)-N-((1S,3R)-3-hydroxycyclopentyl)thieno[3,2-d]pyrimidine-4-carboxamide], the half-inhibitory concentration (IC50) on adenosine A2A receptor is 10 to 50 nM; against adenosine A3 receptor, 50 to 100 nM; at adenosine A2B receptor, less than 10 nM; against adenosine A1 receptor it was 50 to 100 nM. In addition, the Ratio on adenosine A2B receptor was determined as 26.05.

As for `CC(=O)N[C@H]1CCN(C(=O)c2nc(N[C@@H](C)c3cncc(F)c3)nc3ccsc23)C1` [Example Z331, N—((S)-1-(2-(((S)-1-(5-Fluoropyridin-3-yl)ethyl)amino)thieno[3,2-d]pyrimidine-4-carbonyl)pyrrolidin-3-yl)acetamide], the IC50 on adenosine A2A receptor is 100 to 500 nM; on adenosine A3 receptor it was more than 500 nM; at adenosine A2B receptor it was less than 10 nM; against adenosine A1 receptor, more than 500 nM. Also, the Ratio on adenosine A2B receptor is listed as 61.94.

`Cc1cc2nc(N[C@@H](C)c3cccnc3)nc(C(=O)NC[C@@H](C)O)c2s1` [Example Z334, N—((R)-2-Hydroxypropyl)-6-methyl-2-(((S′)-1-(pyridin-3-yl)ethyl)amino)thieno[3,2-d]pyrimidine-4-carboxamide]: the 50% inhibitory concentration (IC50) is 100 to 500 nM at adenosine A2A receptor, 50 to 100 nM against adenosine A3 receptor, less than 10 nM on adenosine A2B receptor and more than 500 nM against adenosine A1 receptor. Also, at adenosine A2B receptor, the Ratio was determined as 171.86.

As to `Cc1cc2nc(N[C@@H](C)c3cccnc3)nc(C(=O)N3CC[C@H](CO)C3)c2s1` [Example Z336, ((S)-3-(Hydroxymethyl)pyrrolidin-1-yl)(6-methyl-2-(((S)-1-(pyridin-3-yl)ethyl)amino)thieno[3,2-d]pyrimidin-4-yl)methanone], the 50% inhibitory concentration (IC50) on adenosine A2A receptor is more than 500 nM; against adenosine A3 receptor, more than 500 nM; at adenosine A2B receptor it was less than 10 nM; at adenosine A1 receptor it was more than 500 nM. In addition, the Ratio at adenosine A2B receptor amounted to 136.91.

Consider `C[C@H](Nc1nc(C(=O)NCC2CCOCC2)c2sccc2n1)c1cncc(F)c1` [Example Z339, (S)-2-((1-(5-Fluoropyridin-3-yl)ethyl)amino)-N-((tetrahydro-2H-pyran-4-yl)methyl)thieno[3,2-d]pyrimidine-4-carboxamide], for which the concentration for half-maximal inhibition (IC50) at adenosine A2A receptor is 50 to 100 nM; on adenosine A3 receptor it was more than 500 nM; on adenosine A2B receptor, less than 10 nM; against adenosine A1 receptor it was more than 500 nM. Further, the Ratio at adenosine A2B receptor is 10.57.

Consider `COC[C@@H](Nc1nc(C(=O)N2CCC2)c2sccc2n1)c1cccnc1` [Example Z341, (S)-Azetidin-1-yl(2-((2-methoxy-1-(pyridin-3-yl)ethyl)amino)thieno[3,2-d]pyrimidin-4-yl)methanone], for which the IC50 was 100 to 500 nM on adenosine A2A receptor, more than 500 nM against adenosine A3 receptor, less than 10 nM at adenosine A2B receptor and more than 500 nM against adenosine A1 receptor. On adenosine A2B receptor, the Ratio was found to be 30.12.

For `C[C@H](Nc1nc(C(=O)N2CC[C@H](O)C2)c2sc(C(F)(F)F)cc2n1)c1cncc(F)c1` [Example Z346, (2-(((S)-1-(5-Fluoropyridin-3-yl)ethyl)amino)-6-(trifluoromethyl)thieno[3,2-d]pyrimidin-4-yl)((S)-3-hydroxypyrrolidin-1-yl)methanone], the IC50 on adenosine A2A receptor is more than 500 nM; against adenosine A3 receptor, more than 500 nM; on adenosine A2B receptor, less than 10 nM; at adenosine A1 receptor it was more than 500 nM. Moreover, the Ratio at adenosine A2B receptor turned out to be 448.66.

In general, IC50 refers to the concentration that gives 50% inhibition.
